This experiment is described as follows: Tested for the ability to inhibit Ins(1,4,5)P 3-phosphatase.

As usually defined, the Ki is a dissociation constant, usually derived from enzyme kinetics or from competition with a known ligand. Low values mean a stronger hold on the target, high ones a looser hold on the target. As for `OC1C(O)C(OP(O)(O)=S)C(OP(O)(O)=S)C(O)C1OP(O)(O)=S` (stereo not drawn) [(-)-chiro-inositol 1,4,6-trisphosphorothioate], the Ki turned out to be 978 µM.

The record behind these values is BindingDB's records for doi:10.1016/S0960-894X(00)80421-7 (1992).
